Measured values: ChEMBL document CHEMBL1149383, “Discovery of a daunorubicin analogue that exhibits potent antitumor activity and overcomes P-gp-mediated drug resistance” (J Med Chem, 2006)
The source made the active and inactive calls. No cut-off for these calls is given here.

What was measured:
K562 [1] = experiment: Increase in the level of drug uptake in Dox-resistant K562 cells in presence of cyclosporine over its absence; type: functional, cell-based; settings: Homo sapiens
K562 [2] = experiment: Increase in the level of drug efflux in Dox-resistant K562 cells in presence of cyclosporine over its absence; type: functional, cell-based; settings: Homo sapiens
Mus musculus [3] = experiment: Survival in mice with Dox-resistant K562 xenografts after 50 days at 5-10 mg/kg, ip; type: functional
K562 [4] = experiment: Drug resistance index, ratio of IC50 in Dox-resistant K562 cells over Dox-sensitive cells; type: functional, Homo sapiens
K562 [5] = experiment: Increase in cytotoxicity against Dox-resistant K562 cells in presence of Cyclosporine over its absence; type: functional, cell-based; settings: Homo sapiens
KB 3-1 [6] = experiment: Cytotoxicity against drug resistant KB-V cells; type: functional, cell-based; settings: Homo sapiens
KB 3-1 [7] = experiment: Cytotoxicity against human epidermoid carcinoma KB-3-1 cells; type: functional, cell-based
K562 [8] = experiment: Cytotoxicity against Dox-resistant K562 cells by MTS; type: functional, cell-based; settings: Homo sapiens
Mus musculus [9] = experiment: Mortality in mice with Dox-resistant K562 xenografts in 20 days at 5-10 mg/kg, ip; type: functional
K562 [10] = experiment: Cytotoxicity against Dox-resistant K562 cells by MTS at 1 uM and in presence of cyclosporine; type: functional, Homo sapiens
K562 [11] = experiment: Cytotoxicity against Dox-resistant K562 cells by MTS at 1 uM and in absence of cyclosporine; type: functional, Homo sapiens

Compound	Activity (K562 [1])	Activity (K562 [2])	Ratio IC50 (K562 [4])	also measured
COc1cccc2c1C(=O)c1c(O)c3c(c(O)c1C2=O)C[C@@](O)(C(C)=O)C[C@@H]3O[C@H]1C[C@H](n2cc(CCCCO)nn2)[C@H](O)[C@H](C)O1	inactive	inactive	–	–
COc1cccc2c1C(=O)c1c(O)c3c(c(O)c1C2=O)C[C@@](O)(C(C)=O)C[C@@H]3O[C@H]1C[C@H](n2cc(CO)nn2)[C@H](O)[C@H](C)O1	inactive	inactive	–	–
COc1cccc2c1C(=O)c1c(O)c3c(c(O)c1C2=O)C[C@@](O)(C(C)=O)C[C@@H]3O[C@H]1C[C@H](n2cc(CCCO)nn2)[C@H](O)[C@H](C)O1	inactive	inactive	–	–
COc1cccc2c1C(=O)c1c(O)c3c(c(O)c1C2=O)C[C@@](O)(C(C)=O)C[C@@H]3O[C@H]1C[C@H](N=[N+]=[N-])[C@H](O)[C@H](C)O1	inactive	inactive	13	Activity (Mus musculus [3]): 100%; Activity (K562 [5]): inactive; IC50 (KB 3-1 [6]): 300 nM; IC50 (KB 3-1 [7]): 300 nM
COc1cccc2c1C(=O)c1c(O)c3c(c(O)c1C2=O)C[C@@](O)(C(C)=O)C[C@@H]3O[C@H]1C[C@H](N)[C@H](O)[C@H](C)O1 [DAUNORUBICIN]	Active	Active	333	IC50 (K562 [8]): > 5000 nM; Activity (Mus musculus [9]): 50%; Activity (K562 [10]): 70%; Activity (K562 [11]): 30%
COc1cccc2c1C(=O)c1c(O)c3c(c(O)c1C2=O)C[C@@](O)(C(C)=O)C[C@@H]3O[C@H]1C[C@H](n2cc(CCO)nn2)[C@H](O)[C@H](C)O1	inactive	inactive	–	–
